Assay results reported in patent US12458627B2, “Autotaxin inhibitors and uses thereof” (DF 2024 IP Acquisition, LLC, priority 2015, dated 2025).
Each block holds one compound with its values, some of them ahead of it.

Legend:
ENPP6 = ENPP6 (Homo sapiens (Human), UniProt Q6UWR7); assay: In vitro ENPP6 inhibition assay; format: biochemical
[1] = tested on: MDA-MB-435S human melanoma line; assay: cells; conditions: read-out: IC50 cell migration
Description: The day before the assay, cells are serum-starved overnight in media containing 0.1-0.2% fatty-acid-free BSA. On the day of the assay, the conditioned media is removed from the cells, centrifuged for clarification and set aside. The cells are then harvested by scraping, counted, and pelleted by centrifugation. […] The assays are performed in duplicate using the Neuroprobe 96-well chemotaxis system with 8 m pore size and fibronectin-coated filters. 152 μL cells are added to 8 μL test autotaxin inhibitor compound and incubated for 15 min at 37° C. […] The filters are incubated at 37° C. for 1-24 hours and non-migrated cells removed from the top of the filter by rinsing with PBS and scraping. The filter is air dried then stained before reading the absorbance at 580 nm.

ENPP1 = ENPP1 (Homo sapiens (Human), UniProt P22413); assay: In vitro ENPP1 inhibition assay; format: biochemical
Sequence of ENPP1 (P22413 whole entry, species assumed): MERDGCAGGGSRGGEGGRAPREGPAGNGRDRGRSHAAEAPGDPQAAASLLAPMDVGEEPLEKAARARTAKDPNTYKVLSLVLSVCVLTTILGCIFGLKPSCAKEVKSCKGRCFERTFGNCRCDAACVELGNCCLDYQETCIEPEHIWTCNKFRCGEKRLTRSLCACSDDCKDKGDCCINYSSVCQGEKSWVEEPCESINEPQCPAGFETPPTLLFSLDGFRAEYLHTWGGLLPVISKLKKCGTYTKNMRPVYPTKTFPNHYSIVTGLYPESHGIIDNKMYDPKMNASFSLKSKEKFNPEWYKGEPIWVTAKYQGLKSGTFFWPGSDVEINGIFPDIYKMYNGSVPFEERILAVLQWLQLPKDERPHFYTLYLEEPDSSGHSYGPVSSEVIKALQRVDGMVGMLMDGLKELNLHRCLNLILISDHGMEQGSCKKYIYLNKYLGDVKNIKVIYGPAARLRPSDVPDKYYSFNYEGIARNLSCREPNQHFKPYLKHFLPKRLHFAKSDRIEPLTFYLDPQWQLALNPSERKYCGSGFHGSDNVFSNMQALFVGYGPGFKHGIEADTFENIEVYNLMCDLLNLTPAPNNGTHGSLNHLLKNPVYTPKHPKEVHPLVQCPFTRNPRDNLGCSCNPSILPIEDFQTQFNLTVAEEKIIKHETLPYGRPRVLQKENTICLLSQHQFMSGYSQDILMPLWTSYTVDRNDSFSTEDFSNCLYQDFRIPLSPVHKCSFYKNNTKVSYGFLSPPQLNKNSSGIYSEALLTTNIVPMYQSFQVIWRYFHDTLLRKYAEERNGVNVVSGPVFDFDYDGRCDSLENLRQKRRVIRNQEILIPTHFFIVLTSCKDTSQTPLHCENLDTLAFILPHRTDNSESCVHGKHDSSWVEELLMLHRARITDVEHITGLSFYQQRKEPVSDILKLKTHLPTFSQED

[2] = tested on: Female C57BL/6 mice, DSS-induced colitis; assay: Mouse DSS-induced chronic colitis model; format: in vivo; conditions: compared to vehicle
Description: Autotaxin inhibitors are dosed at 30, 60 or 100 mpk PO once or twice daily from Day 0 to 63. For a positive control, Cyclosporin A (CsA) is dosed at 25 mpk on Days 1-7, 22-28, and 43-49. Mouse body weight, stool consistency, bleeding and overall Disease Activity Index (DAI) is recorded daily. After 64 days, mouse colons are removed and their length and weights recorded. Colonic sections are stained with hematoxylin and eosin stain (H&E stain) and scored based on inflammatory cell infiltration and tissue damage. Colonic sections are also stained with trichrome and scored for fibrosis.

dog = assay: Dog liver toxicity study; format: in vivo
Description: In some embodiments, liver toxicity can be assessed in suitable in vivo assays. In some embodiments, liver toxicity is assessed by monitoring any increases in the levels of liver markers ALT, AST, AlkP and bilirubin.

CDAA/HFD fed mice = assay: Mouse CDAA/HFD model of liver fibrosis; format: in vivo
Description: Mice are fed a choline deficient diet supplemented with 0.1% methionine and 60% kCal fat (CDAA/HFD) for 12-14 weeks. Mice receive 1, 3, 10, or 30 mpk of autotaxin inhibitor test compound or vehicle starting at the beginning of week 6 after feeding (therapeutically). The following liver enzymes are measured weekly: aspartate transaminase, alkaline phosphatase and bilirubin. At the end of the study, mice are sacrificed and the liver harvested and frozen at −80° C. for the biochemical analysis of liver fibrosis or fixed in neutral-buffered formalin for histological assessment of liver fibrosis. For the biochemical assessment of liver fibrosis, liver tissue homogenates are analyzed for collagen concentration using a hydroxyproline assay. For the histological assessment of liver fibrosis, fixed liver tissue is stained with Picrosirius Red (PSR) stain and severity of liver fibrosis scored using light microscopy. After qualitative scoring of liver fibrosis, quantitation of fibrosis was determined using whole slide images captured at 20× magnification and calculating the percentage of the liver section that was PSR-positive using Indica Labs' Halo® area quantification image analysis software.

ENPP7 = ENPP7 (Homo sapiens (Human), UniProt Q6UWV6); assay: In vitro ENPP7 inhibition assay; format: biochemical
Sequence of ENPP7 (Q6UWV6 22-458, species assumed): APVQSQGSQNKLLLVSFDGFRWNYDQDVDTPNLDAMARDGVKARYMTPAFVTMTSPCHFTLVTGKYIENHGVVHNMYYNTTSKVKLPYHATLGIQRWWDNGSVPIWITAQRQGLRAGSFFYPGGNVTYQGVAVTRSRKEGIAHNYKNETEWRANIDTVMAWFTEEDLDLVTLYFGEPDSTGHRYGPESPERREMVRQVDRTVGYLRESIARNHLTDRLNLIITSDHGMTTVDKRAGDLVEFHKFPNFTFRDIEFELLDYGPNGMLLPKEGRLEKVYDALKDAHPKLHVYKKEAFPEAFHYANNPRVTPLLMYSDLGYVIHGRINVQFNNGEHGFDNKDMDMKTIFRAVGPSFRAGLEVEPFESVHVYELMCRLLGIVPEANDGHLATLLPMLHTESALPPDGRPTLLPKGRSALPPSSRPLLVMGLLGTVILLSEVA

ENPP3 = ENPP3 (Homo sapiens (Human), UniProt O14638); assay: In vitro ENPP3 inhibition assay; format: biochemical
Sequence of ENPP3 (O14638 whole entry, species assumed): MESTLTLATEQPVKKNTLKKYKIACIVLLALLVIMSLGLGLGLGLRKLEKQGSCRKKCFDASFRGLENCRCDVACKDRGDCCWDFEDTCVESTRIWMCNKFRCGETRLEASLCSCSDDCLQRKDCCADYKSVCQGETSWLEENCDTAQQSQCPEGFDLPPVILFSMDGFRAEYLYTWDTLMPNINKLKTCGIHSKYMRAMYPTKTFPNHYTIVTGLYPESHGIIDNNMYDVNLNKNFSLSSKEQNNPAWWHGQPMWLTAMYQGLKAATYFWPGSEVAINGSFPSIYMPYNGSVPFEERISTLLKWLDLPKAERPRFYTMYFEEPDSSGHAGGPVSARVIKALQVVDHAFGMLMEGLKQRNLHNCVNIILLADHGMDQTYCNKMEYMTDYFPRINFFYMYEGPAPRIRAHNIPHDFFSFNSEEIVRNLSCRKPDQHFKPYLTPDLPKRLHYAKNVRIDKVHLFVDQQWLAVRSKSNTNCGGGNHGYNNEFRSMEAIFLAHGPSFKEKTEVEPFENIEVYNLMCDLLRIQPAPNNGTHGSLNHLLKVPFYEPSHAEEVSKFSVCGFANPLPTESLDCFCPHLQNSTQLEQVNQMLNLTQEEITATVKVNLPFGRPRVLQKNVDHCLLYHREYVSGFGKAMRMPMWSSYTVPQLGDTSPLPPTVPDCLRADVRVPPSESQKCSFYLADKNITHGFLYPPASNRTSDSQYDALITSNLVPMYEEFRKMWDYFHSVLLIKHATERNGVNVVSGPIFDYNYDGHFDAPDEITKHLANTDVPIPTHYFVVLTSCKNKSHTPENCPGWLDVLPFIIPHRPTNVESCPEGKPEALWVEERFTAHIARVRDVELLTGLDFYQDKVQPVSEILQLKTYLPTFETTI

[3] = tested on: C57B16/J male mice fed a high fat diet; assay: Glucose tolerance in mice fed a high fat diet; format: in vivo, mouse; conditions: 15 mg/kg twice daily for two days prior to sampling and once on the day of sampling
Description: C57B16/J male mice are fed a normal diet until 6-10 weeks of age. […] For determination of blood glucose, mice are administered test compound orally in 0.5% methocel once or twice daily for several days prior to the glucose challenge. On the day of the glucose tolerance test (GTT) mice are fasted for 6-8 hours and a last dose of test compound administered orally 1-3 hours before the intraperitoneal (i.p.) injection of 1 g/kg D-glucose (Sigma). Blood from the tail vein is sampled before the glucose load (baseline glucose) and every 15-30 min over the next 120 min after the glucose challenge to monitor blood glucose concentration. Blood glucose is quantified using a glucose meter (Accu-Chek, Roche Diagnostics or AlphaTRAK, Abbott Animal Health) and plotted vs. time. Total blood glucose area under the curve (AUC) after the i.p. glucose challenge is calculated from the time plot using GraphPad Prism6.

[4] = tested on: Male Wistar rats, DNBS-induced colitis; assay: Rat DNBS-induced acute colitis model; format: in vivo
Description: Male Wistar rats weighing 150-160 g are intracolonically administered 0.5 ml of 50 mg/ml DNBS in 30% ethanol on Day 1 or vehicle control. Autotaxin inhibitors are dosed at 5 mpk in 0.5% MC once daily from Day 0 to Day 6. Sulfasalazine is dosed at 300 mpk in 0.5% CMC-Na from Day 1 to Day 7. The rats are monitored for body weight and stool consistency daily. At study termination, colon length, colon weight, ulcer area and Masson's trichrome staining are assessed.

human autotaxin = human autotaxin (Homo sapiens (Human), UniProt Q13822); assay: Human autotaxin assay; format: biochemical; conditions: concentrated conditioned media from Hep3B cells; LPC substrate, choline release
[5] = 5 mpk once daily, DNBS acute colitis
[6] = 5 mpk once daily, similar to sulfasalazine

Sequence of ENPP6 (Q6UWR7 23-440, species assumed): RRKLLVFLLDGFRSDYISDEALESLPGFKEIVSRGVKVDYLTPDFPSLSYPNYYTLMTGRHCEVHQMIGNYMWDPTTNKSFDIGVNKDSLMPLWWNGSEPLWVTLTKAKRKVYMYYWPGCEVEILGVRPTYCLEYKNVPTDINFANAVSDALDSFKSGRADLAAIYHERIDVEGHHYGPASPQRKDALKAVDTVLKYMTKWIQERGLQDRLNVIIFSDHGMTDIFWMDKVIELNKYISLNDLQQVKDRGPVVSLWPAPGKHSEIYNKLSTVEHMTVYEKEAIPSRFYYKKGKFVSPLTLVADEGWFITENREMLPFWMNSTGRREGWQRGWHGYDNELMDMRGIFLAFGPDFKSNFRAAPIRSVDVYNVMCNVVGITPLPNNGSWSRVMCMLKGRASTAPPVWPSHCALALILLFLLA

SMILES: O=C1C2Cc3c(n(Cc4ccc(F)cc4)c4ccccc34)CN2C(=O)N1CCC1CCNCC1 (centres unmarked) [Compound C, 4-(2-(6-(4-fluorobenzyl)-1,3-dioxo-5,6,11a-tetrahydro-1H-imidazo[1′,5′:1,6]pyrido[3,4-b]indol-2(3H, 5H, 6H)-yl)ethyl)piperidin-1-ium chloride]
IC50 (human autotaxin): < 500 nM

SMILES: O=C1C2Cc3c(n(Cc4ccc(F)cc4)c4ccccc34)CN2C(=O)N1CCN1CCNCC1 (centres unmarked) [Compound D, 4-(2-(6-(4-fluorobenzyl)-1,3-dioxo-5,6,11a-tetrahydro-1H-imidazo[1′,5′:1,6]pyrido[3,4-b]indol-2(3H, 5H, 6H)-yl)ethyl)piperazin-1-ium chloride]
IC50 (human autotaxin): < 500 nM

SMILES: CCn1cc(-n2c(Cl)c(Sc3cccc(C(=O)O)n3)c3ccc(Cl)c(F)c32)cn1 [Compound G, 6-((2,6-dichloro-1-(1-ethyl-1H-pyrazol-4-yl)-7-fluoro-1H-indol-3-yl)thio)picolinic acid]
IC50 (human autotaxin): < 500 nM

The next lines start with results.

IC50 (ENPP6): > 10 µM
IC50 [1]: 15 nM
IC50 (ENPP1): > 10 µM
IC50 (ENPP7): > 10 µM
IC50 (ENPP3): > 10 µM
SMILES: CCCn1cc(-n2c(Cl)c(Sc3cccc(C(=O)O)c3F)c3ccc(Cl)c(F)c32)cn1 [Compound B, 3-((2,6-dichloro-7-fluoro-1-(1-propyl-1H-pyrazol-4-yl)-1H-indol-3-yl)thio)-2-fluorobenzoic acid]
colon length [2]: significant increase
colon length, longer than vehicle [2]: at least 30%
liver markers (ALT, AST, AlkP and bilirubin) (dog; dog liver toxicity study): did not exhibit the same effects
increases in liver markers ALT, AST, AlkP and bilirubin (dog; dosed at 100 mpk for 5 days): no increases
decrease in % PSR positive area (CDAA/HFD fed mice; 10 mpk, liver, CDAA/HFD mice): approximately 35%
liver fibrosis (CDAA/HFD fed mice; 10 mpk, therapeutic dosing, CDAA/HFD mice): significantly reduced
hepatic fibrosis (FIG. 4, percent PSR positive area) (CDAA/HFD fed mice; dosed therapeutically, mouse CDAA/HFD model): attenuate
baseline glucose [3]: decreased
total blood glucose AUC ([3]; i.p. glucose challenge): decreased
effect on colitis by reducing ulcer area ([4]; 5 mpk once daily Day 0 to Day 6, DNBS rats): positive effect
body weight loss [4, 5]: no significant effect
stool consistency [4, 5]: no significant effect
colon weight [4, 6]: reduced
ulcer area [4, 6]: reduced

IC50 (human autotaxin): < 500 nM
SMILES: CCn1cc(-n2c(Cl)c(Sc3cccc(C(=O)O)c3F)c3ccc(Cl)c(F)c32)cn1 [Compound E, 3-((2,6-dichloro-1-(1-ethyl-1H-pyrazol-4-yl)-7-fluoro-1H-indol-3-yl)thio)-2-fluorobenzoic acid]

IC50 (human autotaxin): < 500 nM
SMILES: CCCn1cc(-n2c(Cl)c(Sc3cccc(C(=O)O)n3)c3ccc(Cl)c(F)c32)cn1 [Compound F, 6-((2,6-dichloro-7-fluoro-1-(1-propyl-1H-pyrazol-4-yl)-1H-indol-3-yl)thio)picolinic acid]

IC50 (human autotaxin): < 500 nM
SMILES: CCCn1cc(-n2c(Cl)c(Sc3cccc(CC(=O)O)c3F)c3ccc(Cl)c(F)c32)cn1 [Compound H, 2-(3-((2,6-dichloro-7-fluoro-1-(1-propyl-1H-pyrazol-4-yl)-1H-indol-3-yl)thio)-2-fluorophenyl)acetic acid]

IC50 (human autotaxin): < 500 nM
SMILES: CCn1cc(-n2c(Cl)c(Sc3cccc(CC(=O)O)c3F)c3ccc(Cl)c(F)c32)cn1 [Compound I, 2-(3-((2,6-dichloro-1-(1-ethyl-1H-pyrazol-4-yl)-7-fluoro-1H-indol-3-yl)thio)-2-fluorophenyl)acetic acid]
